Test results reported in patent US9868734B2, “Conjugate of benzofuranone and indole or azaindole, and preparation and uses thereof” (Luoda Biosciences, Inc., priority 2013, dated 2018).
Like-named read-outs stand apart in the source and are kept apart here.

Tests used:
[1] = tested on: human lung adenocarcinoma epithelial cell line A549; assay: MTT assay, inhibition of tumor cell growth (A549); type: cell-based; conditions: 72 hours incubation, read-out: IC50 on the tumor cells A549
Experimental: (§1) human hepatocellular carcinoma cell line HepG-2, human lung adenocarcinoma epithelial cell line A549
(§2) Tumor cells were seeded in RPM11640 medium containing 10% calf serum, incubated at 37° C., 5% CO2 in CO2 incubator, and passaged every 2-3 days. Cells at logarithmic growth phase were used for this experiment.
(§3) The cells at logarithmic growth phase were formulated into suspension. The cell viability by trypan blue staining was more than 98%. The cell suspension was divided into several groups: 1 as blank control group (cell suspension plus solvent DMSO); and 2 as experimental groups (cell suspension plus compounds to be tested).
(§4) The drugs were formulated into a stock solution in DMSO, and the concentration of the stock solution was 20 mmol (used within 4 hours). In the experiment, the work solution of the drugs was diluted with RPMI1640 medium containing 10% calf serum under aseptic condition, to a final concentration of […]. The drug concentrations were increased by 2 times (1.25-20 μM).
(§5) The cells in logarithmic growth phase were selected, centrifuged, counted, and formulated into a cell suspension (2.5×10^4/ml) with RPMI1640 medium containing 10% calf serum. The cell suspension were inoculated into 96-well plates at a density of 5000 cells/200 μl per well, incubated for 24 hours at 37° C., 5% CO2. According to the above concentration of the drug, the cells were inoculated to 6 groups (including one control group), with 8 wells per group. After incubating for 72 hours, the viability of cells was measured by MTT assay. The absorbance value (A) was measured with detection wavelength at 540 nm, reference wavelength at 630 nm. The inhibitory rate (I) was calculated by the following equation, where T was the absorbance value of the experimental groups, and C was the absorbance value of the blank control group: I=(1−T/C)×100%
(§6) Equation of regression line was drawn from concentration-inhibitory rate curve, from which the IC50 of tested sample was calculated.

[2] = tested on: human hepatocellular carcinoma cell line HepG-2; assay: MTT assay, inhibition of tumor cell growth (HepG2); type: cell-based; conditions: 72 hours incubation, read-out: IC50 on the tumor cells HepG2
Experimental: as §1, §2, §3, §4, §5, §6

IC50 [1]	IC50 [2]	IC50 ([1]; Homo sapiens)	IC50 ([2]; Homo sapiens)	Structure (SMILES)
12 ± 1.9 µM	4 ± 2.4 µM			CON=C1C(=C2C(=O)N(C(C)C)c3ccc(C)cc32)Oc2ccccc21 [Compound 55]
7.1 ± 1.1 µM	2.7 ± 1.2 µM			CON=C1C(=C2C(=O)N(Cc3ccccc3)c3ccccc32)Oc2ccccc21 [Compound 56, N1-benzyl-1′-oxo-indirubin-3′-oxime ether]
6.9 ± 0.8 µM	3.1 ± 0.8 µM			CON=C1C(=C2C(=O)N(Cc3ccccc3)c3ccc(F)cc32)Oc2ccccc21 [Compound 57]
12.1 ± 0.9 µM	3.8 ± 1.5 µM			CON=C1C(=C2C(=O)N(Cc3ccccc3)c3ccc(Cl)cc32)Oc2ccccc21 [Compound 58]
5 ± 0.9 µM	3.7 ± 0.9 µM			CCN1C(=O)C(=C2Oc3ccccc3C2=NOC)c2cc(F)ccc21 [Compound 59]
29 ± 1.8 µM	5.4 ± 0.6 µM			CON=C1C(=C2C(=O)N(C(C)C)c3cc(Cl)ccc32)Oc2ccc(Cl)cc21 [Compound 60]
9.5 ± 2.1 µM	11.5 ± 1 µM			CN1C(=O)C(=C2Oc3ccccc3C2=O)c2cnccc21 [Compound 62]
18.5 ± 1.8 µM	40 ± 3.1 µM			CCN1C(=O)C(=C2Oc3ccccc3C2=O)c2c1ccnc2C [Compound 65]
7.4 ± 1.7 µM	1.8 ± 0.6 µM			CC(C)N1C(=O)C(=C2Oc3ccccc3C2=O)c2cnccc21 [Compound 66]
14 ± 1.7 µM	18.5 ± 1.8 µM			Cc1nccc2c1C(=C1Oc3ccccc3C1=O)C(=O)N2C(C)C [Compound 68]
4.5 ± 0.6 µM	3.6 ± 0.4 µM			CCCCN1C(=O)C(=C2Oc3ccccc3C2=O)c2cncc(F)c21 [Compound 70]
9.4 ± 0.6 µM	19 ± 1.1 µM			CON=C1C(=C2C(=O)N(Cc3ccccc3)c3ccncc32)Oc2ccccc21 [Compound 74]
		8 ± 1.2 µM	10 ± 1.4 µM	O=C1Nc2ncccc2/C1=C1/Oc2ccccc2C1=O [Compound 75, 1′-oxo-7-azaindirubin]
17.4 ± 1.7 µM	31.5 ± 2.5 µM			CCN1C(=O)C(=C2Oc3c(Cl)cccc3C2=O)c2cccnc21 [Compound 79]
16 ± 2 µM	18 ± 2.3 µM			CC(C)N1C(=O)C(=C2Oc3ccccc3C2=O)c2cc(Cl)cnc21 [Compound 82]
25 ± 2.7 µM	18.5 ± 1.5 µM			CCN1C(=O)C(=C2Oc3c(Cl)cccc3C2=O)c2cccnc21 [Compound 85]
87 ± 2.1 µM	80.1 ± 1.5 µM			CC(C)N1C(=O)C(=C2Oc3ccccc3C2=NO)c2cc(Cl)cnc21 [Compound 88]
29 ± 1.8 µM	30.2 ± 1.5 µM			CON=C1C(=C2C(=O)N(Cc3ccccc3)c3ncccc32)Oc2ccccc21 [Compound 90]
31.7 ± 1.5 µM	15.2 ± 1.2 µM			O=C1Nc2ccc(F)cc2C1=C1C(=O)Oc2ccccc21 [Compound 92]
17.2 ± 1.6 µM	14.2 ± 1.3 µM			CN1C(=O)C(=C2C(=O)Oc3ccccc32)c2ccc(Cl)cc21 [Compound 96]
7 ± 1.4 µM	9.2 ± 2 µM			CCN1C(=O)C(=C2C(=O)Oc3ccccc32)c2ccccc21 [Compound 100]
35.5 ± 2.9 µM	3.8 ± 1.5 µM			CC(C)N1C(=O)C(=C2C(=O)Oc3ccccc32)c2ccccc21 [Compound 106]
90.1 ± 4.5 µM	> 100 µM			O=C1Oc2ccccc2C1=C1C(=O)N(C2OC(CO)C(O)C(O)C2O)c2ccccc21 (stereo not shown) [Compound 112]
3.7 ± 0.6 µM	7.4 ± 1.7 µM			COc1ccc2c(c1)C(=C1C(=O)N(Cc3ccccc3)c3ccccc31)C(=O)O2 [Compound 116]
39.6 ± 1.7 µM	27.5 ± 1.3 µM			O=C1Oc2ccccc2C1=C1C(=O)N(Cc2ccccc2)c2ccc(Cl)cc21 [Compound 119]
49.1 ± 2.6 µM	43 ± 2.2 µM			O=C1Oc2ccccc2C1=C1C(=O)N(Cc2ccccc2)c2cc(Cl)ccc21 [Compound 120]
11.6 ± 1.1 µM	15.6 ± 1.2 µM			O=C1Nc2ccncc2C1=C1C(=O)Oc2ccccc21 [Compound 121]
5.8 ± 0.8 µM	9.1 ± 1 µM			CN1C(=O)C(=C2C(=O)Oc3ccccc32)c2cnccc21 [Compound 123]
4.7 ± 0.9 µM	8.4 ± 1.3 µM			CCN1C(=O)C(=C2C(=O)Oc3ccccc32)c2cnccc21 [Compound 127, N-ethyl-1′-oxo-5-azaisoindigo]
